Test results reported in patent publication US6984656B2, “Core modified porphyrins” (priority 2001, dated 2006).
pEC50: −log10 of the molar value. Like-named read-outs stand apart in the source and are kept apart here. Marks after values point to notes of the source that are not given here.

Legend:
[1] = Single-photon quantum yield for fluorescence; type: physicochemical; conditions: for emissiveness relative to dithiaporphyrin analogue: 7 vs 6, 10 vs DH-82; for quantum yield for fluorescence φF (± σ): one-photon, standard TPPS4 in water
Description: In vivo fluorescence techniques have had significant impact on the development of PDT with respect to the pharmacokinetics of sensitizers and to PDT dosimetry. Photofrin® has been used in fluorescent diagnostics and the fluorescence of TPPS4 has been extensively studied. […] The quantum yield standard used in these studies was a freshly prepared solution of TPPS4 (φF =0.12) dissolved in water.

Colo-26 cells = experiment: Dark and light-induced toxicity toward Colo-26 cells in culture; type: cell-based, murine; conditions: for pEC50: 4 J cm^−2 of 590-800 nm light
Experimental: In order to compare relative phototoxicity, the core-modified porphyrins of Table 1 were evaluated in culture for dark and light-induced toxicities toward Colo-26 cells, a murine colon carcinoma cell line.

[2] = Quantum yield for the generation of singlet oxygen; type: physicochemical; conditions: aqueous solution
[3] = in vivo; cited from earlier work
mice = conditions: 150 mg/kg; cited from earlier work
Colo-26 tumors = experiment: PDT against implanted Colo-26 tumors in BALB/c mice; type: in vivo
Experimental: Core-modified porphyrin 6 gave a PDT response in vivo with 694-nm light in BALB/c mice bearing Colo-26 tumors. Animals treated with photosensitizer 6 at 3.25 mg (3.0 μmol)/kg and light required 10.3±0.8 d to reach 400-mm^3 tumor volume, which was more than double the time for control animals (4.3±1.0 d) receiving neither drug nor light (P <0.01).
The animals were irradiated 4 h post-injection with 135 J cm^−2 of 694-nm red light from a dye laser (75 mW cm^−2 for 30 min). […] For comparison purposes, BALB/C mice bearing Colo-26 tumors were given 2.5 mg (4.0 μmol)/kg of Photofrin® as a 5% aqueous dextrose solution and were irradiated 24 h later with 135 J cm^−2 of 630-nm laser light at a power of 75 mW cm^−2 for PDT with Photofrin®.
Animals initially were given i.v. (tail vein) injections of sensitizer at various concentrations (0.05to 5.0 μmol/kg). Mice were restrained at various times thereafter without anesthesia in specially designed holders. Fischer 344 female rats were chemically restrained at various times thereafter. In both models, tumors or normal back skin were exposed to light from a xenon arc lamp with appropriate filters or to a dye laser tuned to the absorption maximum determined by in vivo reflectance measurements. Power density of delivered light typically fell in the range of 10-200 mW cm^−2 evenly distributed to a spot size of roughly 1.5 cm and measured by a radiometer. Several dose rates were explored to examine role/limitation of available oxygen on the photodynamic process. Intratumor temperatures were measured with an Omega HYP-O microthermocouple and, when necessary, a stream of nitrogen gas was used to keep intratumor temperatures below 37° C. Animals were examined and measured daily for the first 14 days post treatment and every other day thereafter until the tumors reached 400 mm^3 in mice or until the tumors double in size for Fischer 344 female rats or for 90 days. Tumor size were measured in two dimensions with a caliper. Time to 400 mm^3 or volume doubling times of tumors from control and PDT-treated groups (8-12 animals per group) were compared statistically using the SAS statistical program (SAS, Inc., Cary, N.C.). A P-value of <0.05 is considered significant. The degree of damage to the normal skin within the irradiation field also were noted. Disappearance of tumor with minimal damage to normal skin is the most desirable response. Animals are considered cured if no tumor regrowth occurs by 90 days. In all studies, three control groups were utilized in addition to the treatment group receiving both sensitizer and light: 1) a complete control receiving neither drug nor light, 2) a group receiving sensitizer only, and 3) a group receiving light only. Representative animals from each of the treatment groups were processed for histology immediately, one day, or two weeks after irradiation. Step sections through the tumor were used to define the boundaries of tumor cell damage and death as a function of distance from the skin surface.

two tumor cell lines = experiment: Phototoxicity in two tumor cell lines in vitro; type: cell-based
Experimental: The topological and chemical properties of dichalcogenaporphyrins impart unexpected biological properties relative to the corresponding porphyrin derivatives. 5,10,15,20-tetrakis(4-sulfonatophenyl)-21-thiaporphyrin 8 and 21-selenaporphyrin 9 (FIG. 13) were prepared and evaluated the phototoxicity in two tumor cell lines in vitro.

BFS1 sarcoma = conditions: cited from earlier work
[4] = Rate of photobleaching in phosphate-buffered saline; type: physicochemical; conditions: PBS; 570-750 nm light at 500 mW cm^−2; constant initial absorbance
Description: One limitation of PDT dosimetry is the rate of photobleaching of the photosensitizer, which can be problematic with Photofrin® and even more problematic with the bacteriochlorins and the chlorins (such as HPPH).

[5] = tested on: R3230AC rat mammary adenocarcinoma cells; experiment: Phototoxicity toward R3230AC cells in culture; type: cell-based; conditions: 10 μM, 24 h; 570-800 nm light, 0.9 J cm^−2; 24 h post-irradiation
Experimental: Similar results were obtained with R3230AC rat mammary adenocarcinoma cells in vitro. […] Light-treated cells and dark controls were incubated for 24 h and cell survival was determined. The surviving fraction, 24 h post-irradiation, is shown graphically in FIG. 4c.

BALB/c mice = experiment: Preliminary toxicity, single intravenous injection in BALB/c mice
[6] = 24 h incubation in dark, survival 24 h later, read-out: effective concentration to give 50% cell-kill of Colo-26 cells in vitro (EC50)
[7] = read-out: EC50 against Colo-26 cells
[8] = 135 J cm^−2, DH-105 2.5, DH-82 0.13, MA-99 0.15 mg/kg, 694 nm 4 h post-injection, Photofrin® 2.5 mg/kg, 630 nm 24 h

O=S(=O)([O-])c1ccc(-c2c3nc(c(-c4ccc(F)cc4)c4ccc(s4)c(-c4ccc(F)cc4)c4nc(c(-c5ccc(S(=O)(=O)[O-])cc5)c5ccc2[se]5)C=C4)C=C3)cc1.[Na+].[Na+] [Compound 10]
emissiveness relative to dithiaporphyrin analogue [1]: 2% | quantum yield for fluorescence φF (± σ) [1]: 1.4 (± 0.1) × 10^−4 | pEC50 (Colo-26 cells; [6]): 5.68 | quantum yield for the generation of singlet oxygen φ(^1O2) [2]: 0.65 ± 0.01

benzoporphyrin derivative
duration of skin photosensitivity [3]: 3 to 5 days

O=S(=O)(O)c1ccc(-c2c3nc(c(-c4ccc(S(=O)(=O)O)cc4)c4ccc([nH]4)c(-c4ccc(S(=O)(=O)O)cc4)c4nc(c(-c5ccc(S(=O)(=O)O)cc5)c5ccc2[nH]5)C=C4)C=C3)cc1 [TPPS4, 5,10,15,20-Tetrakis (4-sulfonato-phenyl)porphyrin, reference compound]
toxicity at high concentrations (mice): neurotoxicity | pEC50 (Colo-26 cells; [6]): 3.90 | quantum yield for the generation of singlet oxygen φ(^1O2) [2]: 0.71^b | time to reach 400-mm^3 tumor volume (Colo-26 tumors; TPPS4 at 10 mg/kg): 6.7 ± 1.1 days

CCCCCCOC(C)c1c(C)c2cc3nc(c4c5[nH]c(cc6nc(cc1[nH]2)C(C)=C6CC)c(C)c5C(=O)C4)[C@@H](CCC(=O)O)[C@@H]3C (stereo partly drawn) [HPPH, reference compound]
pEC50 (Colo-26 cells; [7]): 6.52 | EC50 fold lower than for Photofrin® (Colo-26 cells; Colo-26 cells, 590-800 nm light): 30 fold

5,10,15,20-tetrakis(4-sulfonatophenyl)-21-thiaporphyrin [Compound 8]
phototoxicity in two tumor cell lines (two tumor cell lines): Neither 21-core-modified porphyrin displayed significant phototoxicity | pEC50 (Colo-26 cells; [6]): < 4.00 | quantum yield for the generation of singlet oxygen φ(^1O2) [2]: 0.80 ± 0.02

O=S(=O)([O-])c1ccc(-c2c3nc(c(-c4ccc(S(=O)(=O)[O-])cc4)c4ccc(s4)c(-c4ccc(S(=O)(=O)[O-])cc4)c4nc(c(-c5ccc(S(=O)(=O)[O-])cc5)c5ccc2[nH]5)C=C4)C=C3)cc1.[Na+].[Na+].[Na+].[Na+] [sulfonated 1]
efficacy in vivo relative to chlorin e6 (BFS1 sarcoma; BFS1 sarcoma-bearing mice): comparable to chlorin e6 for efficacy

O=S(=O)(O)c1ccc(-c2c3nc(c(-c4ccc(S(=O)(=O)O)cc4)c4ccc([se]4)c(-c4ccc(S(=O)(=O)O)cc4)c4nc(c(-c5ccc(S(=O)(=O)O)cc5)c5ccc2[se]5)C=C4)C=C3)cc1 [Compound 7]
emissiveness relative to dithiaporphyrin analogue [1]: 10% | quantum yield for fluorescence φF (± σ) [1]: 8.9 (± 0.4) × 10^−4 | pEC50 (Colo-26 cells; [6]): < 4.00

O=S(=O)([O-])c1ccc(-c2c3nc(c(-c4ccc(F)cc4)c4ccc([se]4)c(-c4ccc(F)cc4)c4nc(c(-c5ccc(S(=O)(=O)[O-])cc5)c5ccc2s5)C=C4)C=C3)cc1.[Na+].[Na+] [Compound 11]
pEC50 (Colo-26 cells; [6]): 5.92 | quantum yield for the generation of singlet oxygen φ(^1O2) [2]: 0.64 ± 0.01

O=C([O-])COc1ccc(-c2c3nc(c(-c4ccccc4)c4ccc(s4)c(-c4ccccc4)c4nc(c(-c5ccc(OCC(=O)[O-])cc5)c5ccc2s5)C=C4)C=C3)cc1.[Na+].[Na+] [Compound 15]
pEC50 (Colo-26 cells; [6]): 6.82 | rate of photobleaching (kbleach) [4]: 0.18 ± 0.02 × 10^4 s^−1

CN(C)c1ccc(-c2c3nc(c(-c4ccc(S(=O)(=O)[O-])cc4)c4ccc(s4)c(-c4ccc(S(=O)(=O)[O-])cc4)c4nc(c(-c5ccc(N(C)C)cc5)c5ccc2s5)C=C4)C=C3)cc1.[Na+].[Na+] [Compound 14]
phototoxicity relative to Photofrin® toward R3230AC cells (surviving fraction, FIG. 4c) [5]: more phototoxic than Photofrin® | quantum yield for fluorescence φF (± σ) [1]: <10^−4 | pEC50 (Colo-26 cells; [6]): 6.22 | rate of photobleaching (kbleach) [4]: 0.77 ± 0.04 × 10^4 s^−1 | quantum yield for the generation of singlet oxygen φ(^1O2) [2]: 0.60 ± 0.02

O=S(=O)([O-])c1ccc(-c2c3nc(c(-c4ccc(S(=O)(=O)[O-])cc4)c4ccc([se]4)c(-c4ccc(S(=O)(=O)[O-])cc4)c4nc(c(-c5ccc(S(=O)(=O)[O-])cc5)c5ccc2[nH]5)C=C4)C=C3)cc1.[Na+].[Na+].[Na+].[Na+] [Compound 9]
phototoxicity in two tumor cell lines (two tumor cell lines): Neither 21-core-modified porphyrin displayed significant phototoxicity

O=S(=O)([O-])c1ccc(-c2c3nc(c(-c4ccc(S(=O)(=O)[O-])cc4)c4ccc([se]4)c(-c4ccc(S(=O)(=O)[O-])cc4)c4nc(c(-c5ccc(S(=O)(=O)[O-])cc5)c5ccc2[nH]5)C=C4)C=C3)cc1.[Na+].[Na+].[Na+].[Na+] [sulfonated 2]
skin photosensitization (BFS1 sarcoma; animals irradiated 24 h post-injection): no skin photosensitization was observed

O=S(=O)([O-])c1ccc(-c2c3nc(c(-c4ccc(C(F)(F)F)cc4)c4ccc(s4)c(-c4ccc(C(F)(F)F)cc4)c4nc(c(-c5ccc(S(=O)(=O)[O-])cc5)c5ccc2s5)C=C4)C=C3)cc1.[Na+].[Na+] [Compound 13]
pEC50 (Colo-26 cells; [6]): < 4.00 | rate of photobleaching (kbleach) [4]: 0.13 ± 0.02 × 10^4 s^−1

CC(=O)[O-].CC(=O)[O-].CCc1c(CC)c2cc3nc(cnc4cc(OCCOCCOCCOC)c(OCCOCCOCCOC)cc4ncc4nc(cc1[n-]2)C(CCCO)=C4C)C(C)=C3CCCO.O.[Lu+3] [Lu-Tex, lutetium texaphyrin]
skin photosensitivity [3]: minimal skin photosensitivity

O=S(=O)([O-])c1ccc(-c2c3nc(c(-c4ccc(F)cc4)c4ccc([se]4)c(-c4ccc(F)cc4)c4nc(c(-c5ccc(S(=O)(=O)[O-])cc5)c5ccc2[se]5)C=C4)C=C3)cc1.[Na+].[Na+] [DH-105]
phototoxicity relative to Photofrin® toward R3230AC cells (surviving fraction, FIG. 4c) [5]: more phototoxic than Photofrin® | fluorescence emission detected [1]: no detectable emission | quantum yield for fluorescence φF (± σ) [1]: <10^−4 | pEC50 (Colo-26 cells; [7]): 5.10 | rate of photobleaching (kbleach) [4]: 1.44 ± 0.03 × 10^4 s^−1 | gross abnormalities in organs and tissues after sacrifice (BALB/c mice; 10 mg/kg i.v., after 90 days): no gross abnormalities were noted | toxicity and morbidity (BALB/c mice; 10 mg/kg, followed 90 days post-injection, normal vivarium light): neither toxicity nor morbidity was observed | quantum yield for the generation of singlet oxygen φ(^1O2) [2]: 0.55 ± 0.02 | cures (no tumor regrowth 90 days post-treatment) (Colo-26 tumors; [8]): three cures | mean time to 400 mm^3 of the animals not cured (Colo-26 tumors; [8]): 17 ± 3 days
